The supplement of paper PMC13380429

How the values were obtained:
[1] = system: Calu-3; assay: drug sensitivity score (DSS) for viability; higher = more toxic; extreme values may be limits of the assay; settings: 72 h
[2] = system: U2OS; assay: as above; settings: 72 h
[3] = system: HepG2; assay: as above; settings: 72 h
[4] = system: Vero E6; assay: as above; settings: 72 h
[5] = system: Caco-2; assay: as above; settings: 72 h
[6] = system: Calu-3; assay: cell viability relative to DMSO; higher = less toxic; settings: 72 h
[7] = system: U2OS; assay: as above; settings: 72 h
[8] = system: HepG2; assay: as above; settings: 72 h
[9] = system: Vero E6; assay: as above; settings: 72 h
[10] = system: Caco-2; assay: as above; settings: 72 h
[11] = system: Calu-3; assay: relative viability EC50 (midpoint between 100% and the lowest measured viability); higher = less toxic; settings: 72 h
[12] = system: U2OS; assay: as above; settings: 72 h
[13] = system: HepG2; assay: as above; settings: 72 h
[14] = system: Vero E6; assay: as above; settings: 72 h
[15] = system: Caco-2; assay: as above; settings: 72 h
[16] = system: A549-ACE2 infected with SARS-CoV-2; assay: cell count relative to DMSO; higher = less toxic; settings: 24 h
[17] = system: A549-ACE2; assay: drug-induced phospholipidosis relative to tamoxifen; higher = more phospholipidosis
[18] = system: A549-ACE2; assay: phospholipidosis EC50; higher = less potent phospholipidosis inducer
[19] = system: A549-ACE2 infected with SARS-CoV-2; assay: SARS-CoV-2 infection rate relative to DMSO; higher = more infection; settings: 24 h
[20] = system: A549-ACE2 infected with SARS-CoV-2; assay: morphology score (similarity to uninfected cells); higher = more like uninfected cells; settings: 24 h

Cc1ccc(S(=O)(=O)NC2c3ccccc3Oc3ccccc32)cc1 [AH-7614]
Settings	drug sensitivity score	relative viability EC50 [µM]
[1]	0	–
[2]	0	–
[3]	0	–
[4]	0	–
[5]	0	–
[11]	–	> 10
[12]	–	> 10
[13]	–	> 10
[14]	–	> 10
[15]	–	> 10

cell viability [%]
Settings	[6]	[7]	[8]	[9]	[10]
1 nM	101	105	96.4	95.8	96.5
10 nM	108	95.8	91.5	100	87.3
100 nM	96.5	102	103	99.1	91.7
1000 nM	96.5	102	110	98	92.9
10000 nM	113	100	93	103	93.4

CC(=O)Nc1ncc([N+](=O)[O-])s1 [nithiamide]
Settings	drug sensitivity score	relative viability EC50 [µM]
[1]	0	–
[2]	0	–
[3]	0	–
[4]	0	–
[5]	0	–
[11]	–	> 10
[12]	–	> 10
[13]	–	> 10
[14]	–	> 10
[15]	–	> 10

cell viability [%]
Settings	[6]	[7]	[8]	[9]	[10]
1 nM	97.5	99.2	108	101	96.7
10 nM	98.2	104	91.7	99.5	97.8
100 nM	102	97.8	95.4	100	103
1000 nM	110	103	92.1	93.4	105
10000 nM	101	102	96.3	98	94.1

CNCC[C@H](Oc1cccc2ccccc12)c1cccs1 [duloxetine]
Settings	SARS-CoV-2 infection rate [%]	cell count [%]	cell viability [%]	morphology score	phospholipidosis EC50 [µM]
[6], 1 nM	–	–	103	–	–
[6], 10 nM	–	–	97.1	–	–
[6], 100 nM	–	–	92.4	–	–
[6], 1000 nM	–	–	90.9	–	–
[6], 10000 nM	–	–	78.8	–	–
[8], 1 nM	–	–	96	–	–
[8], 10 nM	–	–	102	–	–
[8], 100 nM	–	–	99.4	–	–
[8], 1000 nM	–	–	101	–	–
[8], 10000 nM	–	–	88.2	–	–
[9], 1 nM	–	–	106	–	–
[9], 10 nM	–	–	100	–	–
[9], 100 nM	–	–	101	–	–
[9], 1000 nM	–	–	93.7	–	–
[9], 10000 nM	–	–	91	–	–
[10], 1 nM	–	–	110	–	–
[10], 10 nM	–	–	100	–	–
[10], 100 nM	–	–	97.7	–	–
[10], 1000 nM	–	–	111	–	–
[10], 10000 nM	–	–	95.9	–	–
[16], 0.3 µM	–	101	–	–	–
[16], 3 µM	–	100	–	–	–
[16], 10 µM	–	119	–	–	–
[16], 30 µM	–	119	–	–	–
[18], 24 h	–	–	–	–	9.15
[18], 48 h	–	–	–	–	9.16
[18], 72 h	–	–	–	–	15.6
[19], 0.3 µM	104	–	–	–	–
[19], 3 µM	94	–	–	–	–
[19], 10 µM	37	–	–	–	–
[19], 30 µM	9	–	–	–	–
[20], 0.3 µM	–	–	–	0.09	–
[20], 3 µM	–	–	–	0.1	–
[20], 10 µM	–	–	–	0.8	–
[20], 30 µM	–	–	–	0.78	–

Settings	drug sensitivity score	relative viability EC50 [µM]
[1]	1.3	–
[3]	0	–
[4]	0	–
[5]	0	–
[11]	–	> 10
[13]	–	> 10
[14]	–	> 10
[15]	–	> 10

drug-induced phospholipidosis [%], [17]
Settings	0.3 µM	0.833333 µM	3.33333 µM	6.66667 µM	10 µM	30 µM
24 h	3.9	1.59	17.6	53.6	65.6	111
48 h	2.99	-2.35	15.6	55.1	61.6	109
72 h	5.95	2.92	12.5	44.6	51.8	110

CCCCc1nc(Cl)c(CO)n1Cc1ccc(-c2ccccc2-c2nnn[nH]2)cc1 [losartan]
Settings	drug sensitivity score	relative viability EC50 [µM]
[1]	0	–
[2]	0	–
[3]	0	–
[4]	0	–
[5]	0	–
[11]	–	> 10
[12]	–	> 10
[13]	–	> 10
[14]	–	> 10
[15]	–	> 10

cell viability [%]
Settings	[6]	[7]	[8]	[9]	[10]
1 nM	103	99.1	110	103	94.1
10 nM	84.4	104	116	102	102
100 nM	96.2	96.4	104	102	93.2
1000 nM	97.5	105	96.7	98.1	94.7
10000 nM	94.6	96.5	96.7	101	95.5

CCN(CC)CCOc1ccc(Nc2ncc3cc(-c4c(Cl)cccc4Cl)c(=O)n(C)c3n2)cc1
Settings	drug sensitivity score	relative viability EC50 [µM]
[1]	12.5	–
[2]	17.5	–
[3]	18.4	–
[4]	15.3	–
[5]	13.5	–
[11]	–	0.712
[12]	–	0.329
[13]	–	0.266
[14]	–	0.465
[15]	–	0.532

cell viability [%]
Settings	[6]	[7]	[8]	[9]	[10]
1 nM	98.8	99.1	111	95	102
10 nM	99.5	104	97.9	95.3	102
100 nM	80.3	90.8	82.2	88.9	80.7
1000 nM	49	10.4	11.3	26.6	41.7
10000 nM	2.3	-0.1	0.1	-0.1	5.4

COc1cccc(/C=N/N=C/c2cccc(OC)c2)c1 [DMeOB]
Settings	drug sensitivity score	relative viability EC50 [µM]
[1]	0	–
[2]	0	–
[3]	0	–
[4]	0	–
[5]	0	–
[11]	–	> 10
[12]	–	> 10
[13]	–	> 10
[14]	–	> 10
[15]	–	> 10

cell viability [%]
Settings	[6]	[7]	[8]	[9]	[10]
1 nM	101	101	110	109	96.4
10 nM	114	102	93.3	99.8	106
100 nM	99.6	97.5	103	103	96.9
1000 nM	111	107	98.4	99.2	104
10000 nM	105	99.3	94.9	103	103
